Measured values reported in paper PMC7039746 (Cancer chemotherapy and pharmacology, 2020).

Target: EcPNP (Escherichia coli purine nucleoside phosphorylase) (Escherichia coli, UniProt P0ABP8)
Conditions: phosphate co-substrate (50 mM potassium phosphate), 100 mM HEPES pH 7.4, 25 °C

Sequence of EcPNP (Escherichia coli purine nucleoside phosphorylase) (P0ABP8 2-239): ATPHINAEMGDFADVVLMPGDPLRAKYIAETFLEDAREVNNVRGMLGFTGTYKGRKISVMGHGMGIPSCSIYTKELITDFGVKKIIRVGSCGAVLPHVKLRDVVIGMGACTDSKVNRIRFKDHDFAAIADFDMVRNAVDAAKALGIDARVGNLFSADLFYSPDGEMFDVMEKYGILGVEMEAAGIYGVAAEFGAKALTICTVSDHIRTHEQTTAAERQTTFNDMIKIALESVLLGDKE

## Nc1nc(F)nc2c1ncn2[C@@H]1O[C@H](CO)[C@@H](O)[C@@H]1O [F-araA, 9-β-D-arabinofuranosyl-2-F-adenine]
  Km: ~950 µM
